Test results from patent US20240246918A1, “COMPOUNDS AND COMPOSITIONS AS EIF4E INHIBITORS AND THE USES THEREOF” (Ribometrix, Inc., priority 2022, published 2024).
pIC50: −log10 of the molar value. Like-named read-outs stand apart in the source and are kept apart here.

How the values were obtained:
human eIF4E protein = biological target: T1, human eIF4E protein (Homo sapiens, UniProt P06730); test: Biochemical competitive binding assay (TR-FRET competition, EDA-m7GDP-ATTO-647N probe); settings: read-out: hEIF4E TR-FRET IC50
T1 construct: purchased Novus NBP-45314
T1 sequence (P06730 whole entry): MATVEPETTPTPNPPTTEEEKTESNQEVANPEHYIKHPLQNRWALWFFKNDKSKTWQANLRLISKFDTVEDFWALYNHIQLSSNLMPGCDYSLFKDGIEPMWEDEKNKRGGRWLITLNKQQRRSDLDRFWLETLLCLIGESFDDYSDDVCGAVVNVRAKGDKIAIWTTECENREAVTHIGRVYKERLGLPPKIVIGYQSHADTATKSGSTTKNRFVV
Procedure, shortened: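 IC50 values come from 4-parameter fits of the normalized 665/620 nm TR-FRET ratio. Compound was first incubated 15 min with 4 nM recombinant His-eIF4E bound to 2.5 nM Eu-anti-His antibody, then 15 min with 5 nM m7GDP-ATTO-647N tracer, in pH 7.5 HEPES buffer with 100 mM KCl, Tween-20 and BSA.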

[1] = tested on: COLO 205 colorectal tumor cells; test: Tumor cell viability inhibition assay (CellTiter-Glo 2.0, 72 hours); type: cell-based; settings: COLO 205 cell viability
Procedure, shortened: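 IC50 derived by 4-parameter fitting after normalizing luminescence to DMSO and max-inhibition wells. Compounds tested as 11 concentrations in 4-fold steps on COLO 205 cells seeded at 1500 per well in RPMI-1640/10% FBS; ATP content measured with CellTiter-Glo 2.0 after 72 h.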

[2] = tested on: cap-dependent translation in Flp-In-293 reporter cells; test: Cellular cap-dependent translation inhibition assay (dual luciferase assay, DLA; Fluc/Rluc ratio, 24 hours); type: cell-based; settings: dual luciferase assay, Flp-In-293 reporter cells, 24 hours, Fluc/Rluc ratio, read-out: DLA 205 IC50

Row | SMILES | pIC50 (human eIF4E protein) | pIC50 ([1]; Homo sapiens, COLO 205, 72 h) | pIC50 ([2]; Homo sapiens, Flp-In-293, 24 h) | pIC50 [1] | pIC50 [2]
1 | Cc1cc(-c2cc(Cl)ccc2OCCn2c(C)nc3c(c2=O)CC(N(C)C2(c4ccc(F)cc4)CC2)CC3)c2scc(C(=O)O)c2n1 (single isomer, unassigned) [Compound 280] | 6.30 to 7.00 | 4.70 to 5.30 | 5.30 to 6.00 |  | 
2 | Cc1cc(-c2cc(Cl)ccc2OCCn2c(C)nc3c(c2=O)CC(N(C)C2(c4ccc(F)cc4)CC2)CC3)c2scc(C(=O)O)c2n1 (single isomer, unassigned) [Compound 281] | 6.30 to 7.00 |  |  | 4.70 to 5.30 | 5.30 to 6.00
3 | Cc1cc(-c2cc(Cl)ccc2OCCn2c(C)nc3c(c2=O)C[C@@H](N2CCC[C@H](F)C2)CC3)c2scc(C(=O)O)c2n1 (single isomer, unassigned) [Compound 282] | > 7.00 | > 5.30 | > 6.00 |  | 
4 | Cc1cc(-c2cc(Cl)ccc2OCCn2c(C)nc3c(c2=O)C[C@H](N2CCC[C@H](F)C2)CC3)c2scc(C(=O)O)c2n1 (single isomer, unassigned) [Compound 283] | > 7.00 | > 5.30 | > 6.00 |  | 
5 | Cc1cc(-c2cc(Cl)ccc2OCCn2c(C)nc3c(c2=O)CC(N(C)C2CC2)CC3)c2scc(C(=O)NS(=O)(=O)c3ccncc3)c2n1 (single isomer, unassigned) [Compound 284] | > 7.00 | 4.70 to 5.30 | 5.30 to 6.00 |  | 
6 | Cc1cc(-c2cc(Cl)ccc2OCCn2c(C)nc3c(c2=O)CC(N(C)C2CC2)CC3)c2scc(C(=O)NS(=O)(=O)c3ccncc3)c2n1 (single isomer, unassigned) [Compound 285] | > 7.00 |  |  | 4.70 to 5.30 | 5.30 to 6.00
7 | Cc1cc(-c2cc(Cl)ccc2OCCn2c(C)nc3c(c2=O)CC(N(C)C2CC2)CC3)c2scc(C(=O)NS(=O)(=O)c3ccccn3)c2n1 (single isomer, unassigned) [Compound 286] | > 7.00 | > 5.30 | > 6.00 |  | 
8 | Cc1cc(-c2cc(Cl)ccc2OCCn2c(C)nc3c(c2=O)CC(N(C)C2CC2)CC3)c2scc(C(=O)NS(=O)(=O)c3ccccn3)c2n1 (single isomer, unassigned) [Compound 287] | > 7.00 |  |  | 4.70 to 5.30 | 5.30 to 6.00
9 | Cc1cc(-c2cc(Cl)ccc2OCCn2c(C)nc3c(c2=O)CC(N(C)CC2CCNCC2)CC3)c2scc(C(=O)NS(C)(=O)=O)c2n1 (single isomer, unassigned) [Compound 289] | > 7.00 | 4.70 to 5.30 | 5.30 to 6.00 |  | 
10 | Cc1cc(-c2cc(Cl)ccc2OCCn2c(C)nc3c(c2=O)CC(N(C2CC2)C2CC2)CC3)c2scc(C(=O)NS(C)(=O)=O)c2n1 (single isomer, unassigned) [Compound 291] | > 7.00 | > 5.30 | > 6.00 |  | 
11 | Cc1cc(-c2cc(Cl)ccc2OCCn2c(C)nc3c(c2=O)CC(N(C2CC2)C2CC2)CC3)c2scc(C(=O)NS(C)(=O)=O)c2n1 (single isomer, unassigned) [Compound 292] | > 7.00 |  |  | 4.70 to 5.30 | 5.30 to 6.00
12 | Cc1nc2c(c(=O)n1CC#Cc1ccc(Cl)cc1-c1ccnc3c(C(=O)O)csc13)C[C@@H](N1CC[C@H](F)C1)CC2 (single isomer, unassigned) [Compound 293] | > 7.00 | > 5.30 | > 6.00 |  | 
13 | Cc1nc2c(c(=O)n1CC#Cc1ccc(Cl)cc1-c1ccnc3c(C(=O)O)csc13)C[C@H](N1CC[C@H](F)C1)CC2 (single isomer, unassigned) [Compound 294] | > 7.00 | > 5.30 | > 6.00 |  | 
14 | Cc1nc2c(c(=O)n1CC#Cc1ccc(Cl)cc1-c1ccnc3c(C(=O)NS(C)(=O)=O)csc13)CC(N(C)Cc1ccncc1)CC2 (single isomer, unassigned) [Compound 295] | > 7.00 | > 5.30 | > 6.00 |  | 
15 | Cc1nc2c(c(=O)n1CC#Cc1ccc(Cl)cc1-c1ccnc3c(C(=O)O)csc13)CC(N(C)C)CC2 (single isomer, unassigned) [Compound 296] | 5.30 to 6.30 | < 4.70 | < 5.30 |  | 
16 | Cc1nc2c(c(=O)n1CC#Cc1ccc(Cl)cc1-c1ccnc3c(C(=O)O)csc13)CC(N(C)C)CC2 (single isomer, unassigned) [Compound 297] | 5.30 to 6.30 |  |  | < 4.70 | < 5.30
17 | Cc1nc2c(c(=O)n1CC#Cc1ccc(Cl)cc1-c1ccnc3c(C(=O)O)csc13)CC(N1CCCCC1)CC2 (single isomer, unassigned) [Compound 298] | > 7.00 | > 5.30 | > 6.00 |  | 
18 | Cc1nc2c(c(=O)n1CC#Cc1ccc(Cl)cc1-c1ccnc3c(C(=O)O)csc13)CC(N1CCCCC1)CC2 (single isomer, unassigned) [Compound 299] | > 7.00 |  |  | 4.70 to 5.30 | 5.30 to 6.00

Row | SMILES | pIC50 (human eIF4E protein) | pIC50 ([1]; Homo sapiens, COLO 205, 72 h) | pIC50 ([2]; Homo sapiens, Flp-In-293, 24 h) | pIC50 [1] | pIC50 [2]
19 | Cc1cc(-c2cc(Cl)ccc2OCCn2c(C)nc3c(c2=O)CC(N(C)C2CCCC2(F)F)CC3)c2scc(C(=O)O)c2n1 (single isomer, unassigned) [Compound 300] | > 7.00 | > 5.30 | > 6.00 |  | 
20 | Cc1cc(-c2cc(Cl)ccc2OCCn2c(C)nc3c(c2=O)CC(N(C)C2CCCC2(F)F)CC3)c2scc(C(=O)O)c2n1 (single isomer, unassigned) [Compound 301] | > 7.00 |  |  | 4.70 to 5.30 | > 6.00
21 | Cc1cc(-c2cc(Cl)ccc2OCCn2c(C)nc3c(c2=O)CC(N(C)C2CC2)CC3)c2scc(C(=O)NS(C)(=O)=O)c2n1 (single isomer, unassigned) [Compound 302] | > 7.00 | > 5.30 | > 6.00 |  | 
22 | Cc1cc(-c2cc(Cl)ccc2OCCn2c(C)nc3c(c2=O)CC(N(C)C2CC2)CC3)c2scc(C(=O)NS(C)(=O)=O)c2n1 (single isomer, unassigned) [Compound 303] | > 7.00 |  |  | > 5.30 | > 6.00
23 | Cc1cc(-c2cc(Cl)ccc2OCCn2c(C)nc3c(c2=O)CC(N(C)CC2(C)COC2)CC3)c2scc(C(=O)NS(C)(=O)=O)c2n1 (single isomer, unassigned) [Compound 304] | > 7.00 | 4.70 to 5.30 | > 6.00 |  | 
24 | Cc1cc(-c2cc(Cl)ccc2OCCn2c(C)nc3c(c2=O)CC(N(C)CC2(C)COC2)CC3)c2scc(C(=O)NS(C)(=O)=O)c2n1 (single isomer, unassigned) [Compound 305] | > 7.00 |  |  | > 5.30 | > 6.00
25 | Cc1cc(-c2cc(Cl)ccc2OCCn2c(C)nc3c(c2=O)CC(N(C)C2CC2)CC3)c2sccc2n1 (single isomer, unassigned) [Compound 306] | 5.30 to 6.30 | 4.70 to 5.30 |  |  | < 5.30
26 | Cc1cc(-c2cc(Cl)ccc2OCCn2c(C)nc3c(c2=O)CC(N(C)C2CC2)CC3)c2sccc2n1 (single isomer, unassigned) [Compound 307] | 6.30 to 7.00 |  |  | 4.70 to 5.30 | 5.30 to 6.00
27 | Cc1cc(-c2cc(Cl)ccc2OCCn2c(C)nc3c(c2=O)CC(N(CC(F)(F)F)C2CC2)CC3)c2scc(C(=O)NS(C)(=O)=O)c2n1 (single isomer, unassigned) [Compound 308] | 6.30 to 7.00 | 4.70 to 5.30 | 5.30 to 6.00 |  | 
28 | Cc1cc(-c2cc(Cl)ccc2OCCn2c(C)nc3c(c2=O)CC(N(CC(F)(F)F)C2CC2)CC3)c2scc(C(=O)NS(C)(=O)=O)c2n1 (single isomer, unassigned) [Compound 309] | 6.30 to 7.00 |  |  | 4.70 to 5.30 | 5.30 to 6.00
29 | Cc1cc(-c2cc(Cl)ccc2OCCn2c(C)nc3c(c2=O)C[C@@H](N2CC[C@H](F)C2)CC3)c2scc(C(=O)O)c2n1 (single isomer, unassigned) [Compound 310] | > 7.00 | > 5.30 | > 6.00 |  | 
30 | Cc1cc(-c2cc(Cl)ccc2OCCn2c(C)nc3c(c2=O)C[C@H](N2CC[C@H](F)C2)CC3)c2scc(C(=O)O)c2n1 (single isomer, unassigned) [Compound 311] | > 7.00 | > 5.30 | > 6.00 |  | 
31 | Cc1cc(-c2cc(Cl)ccc2OCCn2c(C)nc3c(c2=O)C[C@@H](N2CC[C@@H](F)C2)CC3)c2scc(C(=O)NS(C)(=O)=O)c2n1 (single isomer, unassigned) [Compound 312] | > 7.00 | > 5.30 | > 6.00 |  | 
32 | Cc1cc(-c2cc(Cl)ccc2OCCn2c(C)nc3c(c2=O)C[C@H](N2CC[C@@H](F)C2)CC3)c2scc(C(=O)NS(C)(=O)=O)c2n1 (single isomer, unassigned) [Compound 313] | > 7.00 | > 5.30 | > 6.00 |  | 
33 | Cc1nc2c(c(=O)n1CC#Cc1ccc(Cl)cc1-c1ccnc3c(C(=O)NS(C)(=O)=O)csc13)CC(N(C)Cc1ccncc1)CC2 (single isomer, unassigned) [Compound 314] | > 7.00 |  |  | 4.70 to 5.30 | 5.30 to 6.00
34 | Cc1nc2c(c(=O)n1CC#Cc1ccc(Cl)cc1-c1ccnc3c(C(=O)NS(C)(=O)=O)csc13)CC(N1CCCCC1)CC2 (single isomer, unassigned) [Compound 315] | > 7.00 | > 5.30 | > 6.00 |  | 
35 | Cc1nc2c(c(=O)n1CC#Cc1ccc(Cl)cc1-c1ccnc3c(C(=O)NS(C)(=O)=O)csc13)CC(N1CCCCC1)CC2 (single isomer, unassigned) [Compound 316] | > 7.00 |  |  | 4.70 to 5.30 | 5.30 to 6.00
